Reference: US11807693B2 (priority 2014, dated 2023)
Read-outs that look alike come from different tables or passages of the source. Starred links: 1 amine or outer side, 2 acyl side, 3 side chain; linkers in the order of their positions; H or OH if unused. Non-standard residues stand in square brackets, D forms with d. Residues, ends and D or L forms follow the SMILES beside them. *: point of attachment. Oic = O=C(O)[C@@H]1C[C@@H]2CCCC[C@@H]2N1; Phe(4-Cl) = N[C@@H](Cc1ccc(Cl)cc1)C(=O)O; γGlu = O=C(O)[C@H](CCC(=O)[*:2])N[*:1]; NMeR = CN[C@@H](CCCNC(=N)N)C(=O)O; Palmitoyl = CCCCCCCCCCCCCCCC(=O)*; Tridecanoyl = CCCCCCCCCCCCC(=O)*; hArg = N=C(N)NCCCC[C@H](N)C(=O)O; Cha = N[C@@H](CC1CCCCC1)C(=O)O; αMeL = CC(C)C[C@](C)(N)C(=O)O; Aic = NC1(C(=O)O)Cc2ccccc2C1; β3hV = CC(C)[C@H](N)CC(=O)O; Pip = O=C(O)[C@@H]1CCCCN1; Nle = CCCC[C@H](N)C(=O)O; Deg = CCC(N)(CC)C(=O)O; AEEA = NCCOCCOCC(=O)O; Aib = CC(C)(N)C(=O)O; βAla = NCCC(=O)O

Experiments:
[1] = In vitro stability in rat plasma; format: in vitro ADME
Description: (§1) Apelin peptides were spiked into rat plasma, liver homogenate, and kidney homogenate, which were obtained from commercial sources, to a final concentration of 5 μM. The samples were then incubated at 37° C. over a period of 4 hr. […] In a typical experiment, an aliquot of 100 μL of sample was taken from the incubation vial, followed by addition of 300 μL of MeOH containing internal standard. The quenched sample was centrifuged at 5500 g for 15 min after 15 min vortex in room temperature. The supernatant was then analyzed by high resolution LC-MS. […] In vitro plasma, […], and kidney stability results are shown below in Table 14.

[2] = In vitro stability in rat kidney homogenate; format: in vitro ADME; conditions: rat, tissue homogenate
Description: as §1

[3] = In vitro stability in rat liver homogenate; format: in vitro ADME; conditions: tissue homogenate
Description: as §1

[4] = target: T1, rat APJ receptor (Rattus norvegicus, UniProt Q9JHG3); experiment: [35S] GTPγS assay, rat APJ receptor; format: biochemical
T1 construct: expressed in transfected cells
T1 sequence (Q9JHG3 1-377): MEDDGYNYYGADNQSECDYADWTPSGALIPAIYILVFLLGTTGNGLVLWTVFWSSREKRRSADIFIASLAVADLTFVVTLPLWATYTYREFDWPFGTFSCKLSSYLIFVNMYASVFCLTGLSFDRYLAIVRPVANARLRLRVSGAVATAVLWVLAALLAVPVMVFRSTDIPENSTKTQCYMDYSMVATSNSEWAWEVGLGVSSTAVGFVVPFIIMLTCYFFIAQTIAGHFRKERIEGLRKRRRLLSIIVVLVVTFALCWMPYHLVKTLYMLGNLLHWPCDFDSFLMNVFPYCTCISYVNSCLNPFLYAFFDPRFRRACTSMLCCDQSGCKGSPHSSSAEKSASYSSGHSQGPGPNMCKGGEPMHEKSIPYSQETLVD
Description: The membranes were incubated with modified peptides in the assay buffer. […] Bound [^35S] GTPγS was separated from free radiolabel by filtration. The filter bound radioactivity was determined by liquid scintillation counting.

[5] = Table 16, read-out: EC50 Rat APJ Receptor
[6] = rat APJ receptor, read-out: EC50 Rat APJ Receptor

Row | SMILES | remaining at 4 h, 5 μM [1] [%] | remaining at 4 h, 5 μM [2] [%] | remaining at 4 h, 5 μM [3] [%] | EC50 [4, 5] [nM] | EC50 [4, 6] [nM]
1 | CCCCCCCCCCCCC(=O)N[C@@H](CCC(=O)NCCOCCOCC(=O)NCCOCCOCC(=O)N[C@H](CC(=O)N[C@@H](CCCNC(=N)N)C(=O)N1CCC[C@H]1C(=O)N(C)[C@@H](CCCNC(=N)N)C(=O)N[C@@H](CC1CCCCC1)C(=O)N[C@@H](CO)C(=O)N[C@@H](Cc1c[nH]cn1)C(=O)N[C@@H](CCCCN)C(=O)NCC(=O)N1[C@H](C(=O)N[C@@H](CCCC)C(=O)N2CCC[C@H]2C(=O)N[C@@H](Cc2ccc(Cl)cc2)C(=O)O)C[C@@H]2CCCC[C@@H]21)C(C)C)C(=O)O [compound 393] ({Tridecanoyl-γGlu-AEEA-AEEA}-[β3hV]RP[NMeR][Cha]SHKG[Oic][Nle]P[Phe(4-Cl)]-OH) | > 90 | 2 | 12 | – | –
2 | CCCCCCCCCCCCC(=O)N[C@@H](CCC(=O)NCCOCCOCC(=O)NCCOCCOCC(=O)N[C@@H](CCC(N)=O)C(=O)N[C@@H](CCCNC(=N)N)C(=O)N(C)[C@@H](CCCNC(=N)N)C(=O)N[C@@](C)(CC(C)C)C(=O)N[C@@H](CO)C(=O)N[C@@H](Cc1c[nH]cn1)C(=O)N[C@@H](CCCCN)C(=O)NCC(=O)N1[C@H](C(=O)N[C@@H](CCCC)C(=O)N2CCC[C@H]2C(=O)N[C@@H](Cc2ccc(Cl)cc2)C(=O)O)C[C@@H]2CCCC[C@@H]21)C(=O)O [compound 396] ({Tridecanoyl-γGlu-AEEA-AEEA}-QR[NMeR][αMeL]SHKG[Oic][Nle]P[Phe(4-Cl)]-OH) | > 90 | – | < 1 | 1.14 | –
3 | CCCCCCCCCCCCC(=O)N[C@@H](CCC(=O)NCCOCCOCC(=O)NCCOCCOCC(=O)N[C@@H](CCC(N)=O)C(=O)N[C@@H](CCCNC(=N)N)C(=O)N1CCC[C@H]1C(=O)N(C)[C@@H](CCCNC(=N)N)C(=O)N[C@@H](CC(C)C)C(=O)N[C@@H](CO)C(=O)N[C@@H](Cc1c[nH]cn1)C(=O)NCCC(=O)NCC(=O)N1CCC[C@H]1C(=O)N[C@@H](CCCC)C(=O)N1CCC[C@H]1C(=O)N[C@@H](Cc1ccc(Cl)cc1)C(=O)O)C(=O)O [compound 424] ({Tridecanoyl-γGlu-AEEA-AEEA}-QRP[NMeR]LSH[βAla]GP[Nle]P[Phe(4-Cl)]-OH) | 2 | – | < 1 | 17.2 | –
4 | CCCCCCCCCCCCC(=O)N[C@@H](CCC(=O)NCCOCCOCC(=O)NCCOCCOCC(=O)N[C@@H](CCC(N)=O)C(=O)N[C@@H](CCCNC(=N)N)C(=O)N1CCC[C@H]1C(=O)N(C)[C@@H](CCCNC(=N)N)C(=O)N[C@@H](CC(C)C)C(=O)N[C@@H](CO)C(=O)N[C@@H](Cc1c[nH]cn1)C(=O)N[C@@H](CCCCN)C(=O)NCC(=O)N1[C@H](C(=O)N[C@@H](CCCC)C(=O)N2CCC[C@H]2C(=O)N[C@@H](Cc2ccc(Cl)cc2)C(=O)O)C[C@@H]2CCCC[C@@H]21)C(=O)O [compound 352] ({Tridecanoyl-γGlu-AEEA-AEEA}-QRP[NMeR]LSHKG[Oic][Nle]P[Phe(4-Cl)]-OH) | 88 | – | 0 | 0.23 | –
5 | CCCCCCCCCCCCC(=O)N[C@@H](CCC(=O)NCCOCCOCC(=O)NCCOCCOCC(=O)N[C@H](CCC(N)=O)C(=O)N[C@@H](CCCCNC(=N)N)C(=O)N1CCC[C@H]1C(=O)N[C@H](CCCNC(=N)N)C(=O)N[C@@H](CC1CCCCC1)C(=O)N[C@@H](CO)C(=O)N[C@@H](Cc1ccc(O)cc1)C(=O)N[C@@H](CCCCN)C(=O)NCC(=O)N1[C@H](C(=O)N[C@@H](CCCC)C(=O)N2CCC[C@H]2C(=O)N[C@@H](Cc2ccc(Cl)cc2)C(=O)O)C[C@@H]2CCCC[C@@H]21)C(=O)O [compound 373] ({Tridecanoyl-γGlu-AEEA-AEEA}-[dQ][hArg]P[dR][Cha]SYKG[Oic][Nle]P[Phe(4-Cl)]-OH) | – | 64 | – | – | –
6 | CCCC[C@H](NC(=O)[C@@H]1CCCN1C(=O)CNC(=O)[C@H](CCCCN)NC(=O)[C@H](Cc1c[nH]cn1)NC(=O)[C@H](CO)NC(=O)[C@](C)(CC(C)C)NC(=O)[C@H](CCCCNC(=N)N)NC(=O)[C@]1(C)CCCN1C(=O)[C@H](CCCNC(=N)N)NC(=O)[C@H](CCC(N)=O)NC(C)=O)C(=O)N1CCC[C@H]1C(=O)N[C@@H](Cc1ccc(Cl)cc1)C(=O)O [compound 69] | < 1 | < 1 | – | – | –
7 | CCCC[C@H](NC(=O)[C@@H]1CCCN1C(=O)CNC(=O)[C@H](CCCCN)NC(=O)[C@H](Cc1c[nH]cn1)NC(=O)[C@H](CO)NC(=O)[C@](C)(CC(C)C)NC(=O)[C@H](CCCCNC(=N)N)NC(=O)[C@@H]1CCCN1C(=O)[C@@H](CCCNC(=N)N)NC(=O)[C@H](CCC(N)=O)NC(C)=O)C(=O)N1CCC[C@H]1C(=O)N[C@@H](Cc1ccc(Cl)cc1)C(=O)O [compound 70] | 86.1 | – | 84.9 | – | 9.74
8 | CC[C@H](NC(=O)[C@H](CC(N)=O)NC(=O)[C@H](Cc1c[nH]cn1)NC(=O)[C@H](CCCCN)NC(=O)[C@H](CCCNC(=N)N)NC(=O)[C@H](CC(C)C)NC(=O)[C@@H](N)CCCCN)C(=O)N[C@@H](CC(C)C)C(=O)N[C@@H](CCC(N)=O)C(=O)N[C@@H](CCCNC(=N)N)C(=O)N[C@@H](CCCNC(=N)N)C(=O)N[C@@H](CC)C(=O)N[C@@H](CCSC)C(=O)N1CCC[C@H]1C(=O)N[C@@H](CC(C)C)C(=O)N[C@@H](Cc1c[nH]cn1)C(=O)N[C@@H](CO)C(=O)N[C@@H](CCCNC(=N)N)C(=O)N[C@H](C(=O)N1CCC[C@H]1C(=O)N[C@@H](Cc1ccccc1)C(=O)N1CCC[C@H]1C(=O)O)C(C)C [compound 14] | < 1 | – | < 1 | – | 32.4

Further lines, results first:

Row | remaining at 4 h, 5 μM [1] [%] | remaining at 4 h, 5 μM [2] [%] | remaining at 4 h, 5 μM [3] [%] | EC50 [4, 5] [nM] | EC50 [4, 6] [nM] | SMILES
9 | 86 | 4 | 11 | – | – | CCCCCCCCCCCCCCCC(=O)N[C@@H](CCC(=O)NCCOCCOCC(=O)NCCOCCOCC(=O)N[C@H](CCC(N)=O)C(=O)N[C@@H](CCCNC(=N)N)C(=O)N1CCC[C@H]1C(=O)N(C)[C@@H](CCCNC(=N)N)C(=O)N[C@@H](CC1CCCCC1)C(=O)N[C@@H](CO)C(=O)N[C@@H](Cc1c[nH]cn1)C(=O)N[C@@H](CCCCN)C(=O)NCC(=O)N1CCCC[C@H]1C(=O)N[C@@H](CCCC)C(=O)N1CCC[C@H]1C(=O)NC1(C(=O)O)Cc2ccccc2C1)C(=O)O [compound 590] ({Palmitoyl-γGlu-AEEA-AEEA}-[dQ]RP[NMeR][Cha]SHKG[Pip][Nle]P[Aic]-OH)
10 | 73 | < 1 | 2 | – | – | CCCCCCCCCCCCC(=O)N[C@H](CC(=O)O)C(=O)NCCOCCOCC(=O)NCCOCCOCC(=O)N[C@H](CCC(N)=O)C(=O)N[C@@H](CCCNC(=N)N)C(=O)N1CCC[C@H]1C(=O)N(C)[C@@H](CCCNC(=N)N)C(=O)N[C@@H](CC1CCCCC1)C(=O)N[C@@H](CO)C(=O)N[C@@H](Cc1c[nH]cn1)C(=O)N[C@@H](CCCCN)C(=O)NCC(=O)N1[C@H](C(=O)N[C@@H](CCCC)C(=O)NC(C)(C)C(=O)N[C@@H](Cc2ccc(Cl)cc2)C(=O)O)C[C@@H]2CCCC[C@@H]21 [compound 538] (Tridecanoyl-[dD][AEEA][AEEA][dQ]RP[NMeR][Cha]SHKG[Oic][Nle][Aib][Phe(4-Cl)]-OH)
11 | < 1 | – | < 1 | – | 5.94 | CCCCCC(=O)N[C@@H](CCC(=O)NCCOCCOCC(=O)NCCOCCOCC(=O)N[C@@H](CCC(N)=O)C(=O)N(C)[C@@H](CCCCNC(=N)N)C(=O)N1CCC[C@H]1C(=O)N(C)[C@@H](CCCNC(=N)N)C(=O)N[C@@](C)(CC(C)C)C(=O)N[C@@H](CO)C(=O)N[C@@H](Cc1c[nH]cn1)C(=O)N[C@@H](CCCCN)C(=O)NCC(=O)N1CCC[C@H]1C(=O)N[C@@H](CCCC)C(=O)N1CCC[C@H]1C(=O)N[C@@H](Cc1ccc(Cl)cc1)C(=O)O)C(=O)O [compound 561]
12 | – | – | – | 31.7 | – | CCCCCCCCCCCCC(=O)N[C@@H](CCC(=O)NCCOCCOCC(=O)NCCOCCOCC(=O)N[C@H](CCC(N)=O)C(=O)N[C@@H](CCCCNC(=N)N)C(=O)N1CCC[C@H]1C(=O)N[C@H](CCCNC(=N)N)C(=O)N[C@@H](CC1CCCCC1)C(=O)N[C@@H](CO)C(=O)NC(CC)(CC)C(=O)N[C@@H](CCCCN)C(=O)NCC(=O)N1[C@H](C(=O)N[C@@H](CCCC)C(=O)N2CCC[C@H]2C(=O)N[C@@H](Cc2ccc(Cl)cc2)C(=O)O)C[C@@H]2CCCC[C@@H]21)C(=O)O [compound 451] ({Tridecanoyl-γGlu-AEEA-AEEA}-[dQ][hArg]P[dR][Cha]S[Deg]KG[Oic][Nle]P[Phe(4-Cl)]-OH)
13 | – | – | – | 0.175 | – | CCCCCCCCCCCCC(=O)N[C@@H](CCC(=O)NCCOCCOCC(=O)NCCOCCOCC(=O)N[C@@H](CCC(N)=O)C(=O)N[C@@H](CCCNC(=N)N)C(=O)N1CCC[C@H]1C(=O)N[C@@H](CCC(N)=O)C(=O)N[C@@H](CC(C)C)C(=O)N[C@@H](CO)C(=O)N[C@@H](Cc1c[nH]cn1)C(=O)N[C@@H](CCCCN)C(=O)NCC(=O)N1CCC[C@H]1C(=O)N[C@@H](CCCC)C(=O)N1CCC[C@H]1C(=O)N[C@@H](Cc1ccc(Cl)cc1)C(=O)O)C(=O)O [compound 465] ({Tridecanoyl-γGlu-AEEA-AEEA}-QRPQLSHKGP[Nle]P[Phe(4-Cl)]-OH)
